System: Acinetobacter baumannii-calcoaceticus species complex clinical isolates
Test: MIC of triple combinations (Compound 1, sulbactam, meropenem or cefepime), 141 clinical isolates
Assay type: cell-based
Conditions: Cmpd 1 at 4 μg/mL in combinations
From the text: For a more comprehensive assessment of the ability of test compounds to potentiate sulbactam in triple combinations with β-lactams additional MIC assays were utilized.

MIC (strain 993131): 64 µg/mL | MIC (strain 994180): 2 µg/mL | MIC (strain 995771): 256 µg/mL | MIC (strain 996612): 32 µg/mL | MIC (strain 996869): >256 µg/mL | MIC (strain 997574): 256 µg/mL | MIC (strain 998107): 64 µg/mL | MIC (strain 998532): 256 µg/mL | MIC (strain 998898): 32 µg/mL | MIC (strain 998907): 16 µg/mL | MIC (strain 999306): 2 µg/mL | MIC (strain 1001007): 256 µg/mL | MIC (strain 1001611): 32 µg/mL | MIC (strain 1002208): 64 µg/mL | MIC (strain 1002952): >256 µg/mL | MIC (strain 1002960): >256 µg/mL | MIC (strain 1003557): 256 µg/mL | MIC (strain 1003787): >256 µg/mL | MIC (strain 1008508): >256 µg/mL | MIC (strain 1008510): 256 µg/mL | MIC (strain 1010245): 64 µg/mL | MIC (strain 1010331): 64 µg/mL | MIC (strain 1011959): 64 µg/mL | MIC (strain 1013022): 256 µg/mL | MIC (strain 1013035): 256 µg/mL | MIC (strain 1013055): 32 µg/mL | MIC (strain 1013322): 64 µg/mL | MIC (strain 1014143): 8 µg/mL | MIC (strain 1014646): 64 µg/mL | MIC (strain 1014815): 256 µg/mL | MIC (strain 1014866): 64 µg/mL | MIC (strain 1014870): 256 µg/mL | MIC (strain 1014878): 64 µg/mL | MIC (strain 1018109): 0.25 µg/mL | MIC (strain 1018801): 256 µg/mL | MIC (strain 1018802): 256 µg/mL | MIC (strain 1018807): 64 µg/mL | MIC (strain 1018851): 256 µg/mL | MIC (strain 1019086): 256 µg/mL | MIC (strain 1023031): >256 µg/mL | MIC (strain 1023034): 64 µg/mL | MIC (strain 1023074): 32 µg/mL | MIC (strain 1023207): 32 µg/mL | MIC (strain 1023329): 64 µg/mL | MIC (strain 1024119): 4 µg/mL | MIC (strain 1026990): 256 µg/mL | MIC (strain 1026992): 32 µg/mL | MIC (strain 1027234): 64 µg/mL | MIC (strain 1027590): 256 µg/mL | MIC (strain 1027603): 64 µg/mL | MIC (strain 1027748): 32 µg/mL | MIC (strain 1028193): >256 µg/mL | MIC (strain 1029770): >256 µg/mL | MIC (strain 1029913): 32 µg/mL | MIC (strain 1030427): 256 µg/mL | MIC (strain 1031167): 256 µg/mL | MIC (strain 1031191): 64 µg/mL | MIC (strain 1031211): 64 µg/mL | MIC (strain 1031238): 256 µg/mL | MIC (strain 1032669): 64 µg/mL | MIC (strain 1032761): 256 µg/mL | MIC (strain 1033340): 256 µg/mL | MIC (strain 1033979): 256 µg/mL | MIC (strain 1034048): 256 µg/mL | MIC (strain 1034912): 64 µg/mL | MIC (strain 1034913): 64 µg/mL | MIC (strain 1034916): 64 µg/mL | MIC (strain 1034925): 64 µg/mL | MIC (strain 1034962): 64 µg/mL | MIC (strain 1035144): 256 µg/mL | MIC (strain 1035788): 64 µg/mL | MIC (strain 1035794): 32 µg/mL | MIC (strain 1035808): 16 µg/mL | MIC (strain 1035825): 64 µg/mL | MIC (strain 1036045): 64 µg/mL | MIC (strain 1036068): 64 µg/mL | MIC (strain 1036734): 64 µg/mL | MIC (strain 1036768): 8 µg/mL | MIC (strain 1036781): >256 µg/mL | MIC (strain 1036859): 64 µg/mL | MIC (strain 1036882): 256 µg/mL | MIC (strain 1036921): 1 µg/mL | MIC (strain 1037193): >256 µg/mL | MIC (strain 1037211): 2 µg/mL | MIC (strain 1037251): 64 µg/mL | MIC (strain 1037256): 64 µg/mL | MIC (strain 1037479): 256 µg/mL | MIC (strain 1037593): 256 µg/mL | MIC (strain 1037618): 1 µg/mL | MIC (strain 1037714): 256 µg/mL | MIC (strain 1037731): 0.5 µg/mL | MIC (strain 1037732): 256 µg/mL | MIC (strain 1037738): >256 µg/mL | MIC (strain 1037747): 256 µg/mL | MIC (strain 1038418): 0.25 µg/mL | MIC (strain 1038439): 0.25 µg/mL | MIC (strain 1039502): 64 µg/mL | MIC (strain 1039518): 64 µg/mL | MIC (strain 1040900): 64 µg/mL | MIC (strain 1040901): 64 µg/mL | MIC (strain 1042182): 64 µg/mL
Compound: C[C@@H](O)[C@H]1C(=O)N2C(C(=O)O)=C(S[C@@H]3CN[C@H](C(=O)N(C)C)C3)[C@H](C)[C@H]12 [MEM]

Source: US20220054513A1, “COMBINATION COMPOSITIONS COMPRISING A BETA-LACTAMASE INHIBITOR” (VenatoRx Pharmaceuticals, Inc., priority 2018, published 2022)
